Reference: article PMC4778445, “Measurement of free glucocorticoids: quantifying corticosteroid-binding globulin binding affinity and its variation within and among mammalian species” (Conservation Physiology, 2015)

Tests used:
Test in all cases: radioligand saturation binding, dextran-coated charcoal separation
[1] = target: T1, corticosteroid-binding globulin (CBG), meadow vole (Microtus pennsylvanicus, UniProt Z9TXB6IQC5); conditions: labelled compound ([1,2,6,7-3H]corticosterone); 37 °C, ≥4 h, PBS with gelatin; separation at 0 °C; plasma 1/50; mean of two runs; error SEM
T1 construct: native protein in charcoal-stripped plasma, not purified
T1 sequence (Z9TXB6IQC5 21-398): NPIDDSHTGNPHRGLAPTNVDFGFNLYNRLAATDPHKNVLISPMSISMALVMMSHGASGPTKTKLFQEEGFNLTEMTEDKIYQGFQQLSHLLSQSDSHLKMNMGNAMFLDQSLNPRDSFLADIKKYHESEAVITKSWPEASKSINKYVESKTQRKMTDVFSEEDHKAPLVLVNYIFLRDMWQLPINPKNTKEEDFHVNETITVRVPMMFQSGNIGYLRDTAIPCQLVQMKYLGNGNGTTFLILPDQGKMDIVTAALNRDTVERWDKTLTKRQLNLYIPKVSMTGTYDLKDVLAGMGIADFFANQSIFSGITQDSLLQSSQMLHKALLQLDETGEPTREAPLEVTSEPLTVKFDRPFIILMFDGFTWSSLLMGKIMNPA
Description: radioligand saturation binding, dextran-coated charcoal separation on corticosteroid-binding globulin (CBG), meadow vole

[2] = target: T2, corticosteroid-binding globulin (CBG), deer mouse (Peromyscus maniculatus, UniProt A0A6J0EC89); conditions: labelled compound ([1,2,6,7-3H]corticosterone); 37 °C, ≥4 h, PBS with gelatin; separation at 0 °C; plasma 1/200; error SEM
T2 construct: gene Serpina6; native protein in charcoal-stripped plasma, not purified
T2 sequence (A0A6J0EC89 23-402): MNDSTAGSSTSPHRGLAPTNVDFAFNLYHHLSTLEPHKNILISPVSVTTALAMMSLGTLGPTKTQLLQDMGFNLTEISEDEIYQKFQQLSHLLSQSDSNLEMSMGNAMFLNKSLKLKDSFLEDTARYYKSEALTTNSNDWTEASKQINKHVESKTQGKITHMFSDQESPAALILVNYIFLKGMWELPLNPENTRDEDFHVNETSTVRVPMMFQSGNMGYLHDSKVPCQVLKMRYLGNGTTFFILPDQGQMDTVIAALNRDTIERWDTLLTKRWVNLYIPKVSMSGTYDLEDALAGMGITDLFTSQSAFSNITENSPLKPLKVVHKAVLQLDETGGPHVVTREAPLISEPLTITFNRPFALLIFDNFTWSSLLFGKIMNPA
Description: radioligand saturation binding, dextran-coated charcoal separation on corticosteroid-binding globulin (CBG), deer mouse

[3] = target: T3, corticosteroid-binding globulin (CBG), alpaca (Vicugna pacos, UniProt A0A6I9IEG0); conditions: labelled compound ([1,2,6,7-3H]cortisol); 37 °C, ≥4 h, PBS with gelatin; separation at 0 °C; serum 1/50; non-specific binding subtracted; error SEM
T3 construct: gene SERPINA6; native protein in charcoal-stripped serum (Toronto Zoo), not purified
T3 sequence (A0A6I9IEG0 18-405): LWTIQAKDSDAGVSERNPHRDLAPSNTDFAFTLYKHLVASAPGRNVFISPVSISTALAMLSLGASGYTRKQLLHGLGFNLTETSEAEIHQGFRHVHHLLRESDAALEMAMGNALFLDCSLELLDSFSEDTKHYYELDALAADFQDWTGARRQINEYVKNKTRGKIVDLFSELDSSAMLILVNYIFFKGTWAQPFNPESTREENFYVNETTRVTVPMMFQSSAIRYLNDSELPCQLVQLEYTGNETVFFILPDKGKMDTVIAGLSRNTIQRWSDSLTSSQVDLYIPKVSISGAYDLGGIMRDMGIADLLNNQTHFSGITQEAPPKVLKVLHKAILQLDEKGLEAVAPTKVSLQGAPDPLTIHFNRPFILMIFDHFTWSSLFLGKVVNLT
Description: radioligand saturation binding, dextran-coated charcoal separation on corticosteroid-binding globulin (CBG), alpaca

[4] = target: T4, corticosteroid-binding globulin (CBG), Arctic wolf (Canis lupus, UniProt A0A8I3MUM2); conditions: labelled compound ([1,2,6,7-3H]cortisol); 37 °C, ≥4 h, PBS with gelatin; separation at 0 °C; serum 1/50; non-specific binding subtracted; error SEM
T4 construct: gene SERPINA6; native protein in charcoal-stripped serum (Toronto Zoo), not purified
T4 sequence (A0A8I3MUM2 23-404): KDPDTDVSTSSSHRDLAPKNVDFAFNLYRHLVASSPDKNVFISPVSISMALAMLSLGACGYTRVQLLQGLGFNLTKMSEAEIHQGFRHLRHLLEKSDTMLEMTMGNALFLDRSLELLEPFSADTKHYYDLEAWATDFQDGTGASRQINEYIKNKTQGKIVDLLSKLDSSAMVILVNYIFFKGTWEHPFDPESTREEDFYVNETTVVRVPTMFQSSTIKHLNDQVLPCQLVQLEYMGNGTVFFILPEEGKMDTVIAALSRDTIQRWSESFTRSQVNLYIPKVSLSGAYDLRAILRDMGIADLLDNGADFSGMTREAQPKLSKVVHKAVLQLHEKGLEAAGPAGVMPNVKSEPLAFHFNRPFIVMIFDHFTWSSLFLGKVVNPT
Description: radioligand saturation binding, dextran-coated charcoal separation on corticosteroid-binding globulin (CBG), Arctic wolf

[5] = target: T5, corticosteroid-binding globulin (CBG), Soay sheep (Ovis aries, UniProt P49920); conditions: labelled compound ([1,2,6,7-3H]cortisol); 37 °C, ≥4 h, PBS with gelatin; separation at 0 °C; plasma 1/50; error SEM
T5 construct: gene SERPINA6; native protein in charcoal-stripped plasma, not purified
T5 sequence (P49920 23-430): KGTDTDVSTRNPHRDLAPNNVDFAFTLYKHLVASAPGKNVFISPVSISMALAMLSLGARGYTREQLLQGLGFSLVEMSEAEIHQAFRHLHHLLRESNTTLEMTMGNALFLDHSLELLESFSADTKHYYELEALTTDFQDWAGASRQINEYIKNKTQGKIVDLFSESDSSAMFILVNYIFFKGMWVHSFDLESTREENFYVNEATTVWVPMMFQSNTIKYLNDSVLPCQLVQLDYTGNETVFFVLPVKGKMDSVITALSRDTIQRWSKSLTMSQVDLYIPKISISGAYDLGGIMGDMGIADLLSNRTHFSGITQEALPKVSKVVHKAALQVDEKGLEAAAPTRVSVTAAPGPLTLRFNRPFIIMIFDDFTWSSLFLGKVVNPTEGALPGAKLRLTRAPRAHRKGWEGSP
Description: radioligand saturation binding, dextran-coated charcoal separation on corticosteroid-binding globulin (CBG), Soay sheep

[6] = target: T6, corticosteroid-binding globulin (CBG), cheetah (Acinonyx jubatus, UniProt A0A6I9ZWD2); conditions: labelled compound ([1,2,6,7-3H]cortisol); 37 °C, ≥4 h, PBS with gelatin; separation at 0 °C; serum 1/50; error SEM
T6 construct: gene LOC106977455; native protein in charcoal-stripped serum (Toronto Zoo), not purified
T6 sequence (A0A6I9ZWD2 23-404): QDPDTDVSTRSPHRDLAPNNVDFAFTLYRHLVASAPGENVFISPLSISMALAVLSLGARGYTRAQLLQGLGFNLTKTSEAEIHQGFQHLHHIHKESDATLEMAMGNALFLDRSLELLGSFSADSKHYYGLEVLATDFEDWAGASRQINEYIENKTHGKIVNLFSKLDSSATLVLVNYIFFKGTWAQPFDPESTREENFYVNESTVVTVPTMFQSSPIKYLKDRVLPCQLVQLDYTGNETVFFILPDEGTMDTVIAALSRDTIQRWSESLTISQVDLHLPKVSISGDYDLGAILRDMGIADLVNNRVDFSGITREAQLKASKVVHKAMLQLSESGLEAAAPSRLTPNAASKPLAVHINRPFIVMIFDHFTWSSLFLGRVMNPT
Description: radioligand saturation binding, dextran-coated charcoal separation on corticosteroid-binding globulin (CBG), cheetah

[7] = target: T7, corticosteroid-binding globulin (CBG), Arctic ground squirrel (Urocitellus parryii, UniProt A0A8D2GQE2); conditions: labelled compound ([1,2,6,7-3H]cortisol); 37 °C, ≥4 h, PBS with gelatin; separation at 0 °C; plasma 1/50; mean of four runs; error SEM
T7 construct: gene SERPINA6; native protein in charcoal-stripped plasma, not purified
T7 sequence (A0A8D2GQE2 23-403): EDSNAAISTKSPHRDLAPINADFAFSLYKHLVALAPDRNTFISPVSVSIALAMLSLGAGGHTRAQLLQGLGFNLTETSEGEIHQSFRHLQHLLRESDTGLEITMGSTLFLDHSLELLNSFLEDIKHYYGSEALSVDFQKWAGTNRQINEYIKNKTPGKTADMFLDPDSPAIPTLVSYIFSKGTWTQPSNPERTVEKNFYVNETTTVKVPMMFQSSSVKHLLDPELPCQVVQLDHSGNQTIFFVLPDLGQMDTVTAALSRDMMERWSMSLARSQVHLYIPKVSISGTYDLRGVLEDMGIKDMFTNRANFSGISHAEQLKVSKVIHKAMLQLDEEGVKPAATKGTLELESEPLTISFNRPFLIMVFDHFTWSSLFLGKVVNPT
Description: radioligand saturation binding, dextran-coated charcoal separation on corticosteroid-binding globulin (CBG), Arctic ground squirrel

[8] = target: T8, corticosteroid-binding globulin (CBG), Bactrian camel (Camelus bactrianus, UniProt A0A9W3H1V5); conditions: labelled compound ([1,2,6,7-3H]cortisol); 37 °C, ≥4 h, PBS with gelatin; separation at 0 °C; serum 1/50; non-specific binding subtracted; error SEM
T8 construct: gene LOC105079894; native protein in charcoal-stripped serum (Toronto Zoo), not purified
T8 sequence (A0A9W3H1V5 24-405 limits assumed): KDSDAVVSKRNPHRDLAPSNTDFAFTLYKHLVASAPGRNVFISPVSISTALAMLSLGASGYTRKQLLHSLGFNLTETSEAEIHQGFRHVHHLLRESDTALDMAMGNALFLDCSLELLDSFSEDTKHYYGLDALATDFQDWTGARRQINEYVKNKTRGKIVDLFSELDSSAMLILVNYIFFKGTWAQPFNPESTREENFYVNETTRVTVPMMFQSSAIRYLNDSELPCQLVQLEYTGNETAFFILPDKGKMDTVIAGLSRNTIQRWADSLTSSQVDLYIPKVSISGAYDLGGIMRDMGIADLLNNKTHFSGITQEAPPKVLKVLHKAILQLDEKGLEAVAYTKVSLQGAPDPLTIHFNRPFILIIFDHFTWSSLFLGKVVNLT
Description: radioligand saturation binding, dextran-coated charcoal separation on corticosteroid-binding globulin (CBG), Bactrian camel

[9] = target: T9, corticosteroid-binding globulin (CBG), Siberian tiger (Panthera tigris, UniProt A0A8C9K299); conditions: labelled compound ([1,2,6,7-3H]cortisol); 37 °C, ≥4 h, PBS with gelatin; separation at 0 °C; serum 1/50; non-specific binding subtracted; error SEM
T9 construct: native protein in charcoal-stripped serum (Toronto Zoo), not purified
T9 sequence (A0A8C9K299 23-403): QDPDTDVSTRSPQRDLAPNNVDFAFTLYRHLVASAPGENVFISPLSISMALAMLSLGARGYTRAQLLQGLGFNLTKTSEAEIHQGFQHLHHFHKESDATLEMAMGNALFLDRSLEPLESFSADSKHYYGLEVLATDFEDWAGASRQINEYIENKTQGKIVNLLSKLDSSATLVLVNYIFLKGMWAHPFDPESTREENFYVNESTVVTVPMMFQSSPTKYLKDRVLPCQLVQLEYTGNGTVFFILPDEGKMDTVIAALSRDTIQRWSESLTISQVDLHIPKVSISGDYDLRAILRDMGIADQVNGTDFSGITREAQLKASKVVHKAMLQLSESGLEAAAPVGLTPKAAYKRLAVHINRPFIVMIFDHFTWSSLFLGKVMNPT
Description: radioligand saturation binding, dextran-coated charcoal separation on corticosteroid-binding globulin (CBG), Siberian tiger

Structure (SMILES) | Kd [1] | Kd [2] | Kd [3] | Kd [4] | Kd [5] | Kd [6] | Kd [7] | Kd [8] | Kd [9]
C[C@]12C[C@H](O)[C@H]3[C@@H](CCC4=CC(=O)CC[C@@]43C)[C@@H]1CC[C@@H]2C(=O)CO [B, corticosterone] | 5.4 ± 1.2 nM | 4.9 ± 0.61 nM | – | – | – | – | – | – | –
C[C@]12CCC(=O)C=C1CC[C@@H]1[C@@H]2[C@@H](O)C[C@@]2(C)[C@H]1CC[C@]2(O)C(=O)CO [F, cortisol] | – | – | 0.6 ± 0.15 nM | 0.8 ± 0.11 nM | 1.7 ± 0.55 nM | 8 ± 2.4 nM | 4 ± 0.4 nM | 1 ± 0.16 nM | 0.7 ± 0.19 nM
